Measurements from patent publication US20120149657A1, “2'-FLUORO ARABINO NUCLEOSIDES AND USE THEREOF” (Southern Research Institute, priority 2009, published 2012).
Marks after values point to notes of the source that are not given here.

Columns and labels:
CCRF-CEM leukemia = assay: In vitro cytotoxicity (MTS, 72 h), CCRF-CEM; type: cell-based, human; settings: for IC50: Homo sapiens, CCRF-CEM, 72 hours of incubation
Description: (§1) The concentration of compound required to inhibit cell growth by 50% (IC50) after 72 hours of incubation was determined for each unprotected analog with eight human tumor cell lines (SNB-7 CNS, DLD-1 colon, CCRF-CEM leukemia, NCI-H23 NSCL, ZR-75-1 breast, LOX melanoma, PC-3 prostate, and CAKI-1 renal). […] The α-anomers of these compounds were also screened but were not found to be cytotoxic (data not shown).
(§2) CCRF-CEM cells are a T-cell leukemia cell line that is known to be very sensitive to nucleoside analogs.
(§3) All cell lines were grown in RPMI 1640 medium containing 10% fetal bovine serum, sodium bicarbonate, and 2 mM L-glutamine. For in vitro evaluation of the sensitivity of these cell lines to compounds, cells were plated in 96-well microtiter plates and then were exposed continuously to various concentrations of the compounds for 72 h at 37° C. Cell viability was measured using the MTS assay [3-(4,5-dimethylthiazol-2-yl)-5-(3-carboxymethoxyphenyl)-2-(4-sulfophenyl)-2H-tetrazolium, inner salt; MTS and an electron coupling reagent (phenazine ethosulfate; PES)]. Absorbance was read at 490 nm. The background absorbance mean was subtracted from the data followed by conversion to percent of control. The drug concentrations producing survival just above and below 50% level were used in a linear regression analysis to calculate the IC50.

CCRF-CEM cells = assay: Intracellular triphosphate in CCRF-CEM cells; type: cell-based, human
Description: CCRF-CEM cells were incubated with methyl-F-araC, araC, and gemcitabine, and the amount of intracellular triphosphate (TP) of each compound was determined.
CCRF-CEM cell extracts were collected by centrifugation and resuspended in ice-cold 0.5 M perchloric acid. The samples were centrifuged at 12,000×g, and the supernatant fluid was neutralized and buffered by adding 4 M KOH and 1 M potassium phosphate, pH 7.4. KClO4 was removed by centrifugation, and a portion of the supernatant fluid was injected onto a strong anion exchange HPLC (Bio Basic anion exchange column, Thermo Electron Corp., Bellefonte, Pa.). Nucleotides were eluted with a 30-min linear salt and pH gradient from 6 mM ammonium phosphate (pH 2.8) to 900 mM ammonium phosphate (pH 6). Peaks were detected as they eluted from the column by their absorbance at 254 nm.

[1] = tested on: cells that lacked dCyd kinase; assay: Cytotoxicity in cells that lacked dCyd kinase; type: cell-based
From the text: as §2

SNB-7 CNS = assay: In vitro cytotoxicity (MTS, 72 h), SNB-7; type: cell-based; settings: Homo sapiens; SNB-7, 72 hours of incubation
Description: as §1, §3

DLD-1 colon = assay: In vitro cytotoxicity (MTS, 72 h), DLD-1; type: cell-based; settings: Homo sapiens; DLD-1, 72 hours of incubation
Description: as §1, §3

NCI-H23 NSCL [2] = assay: In vitro cytotoxicity (MTS, 72 h), NCI-H23; type: cell-based; settings: Homo sapiens; NCI-H23, 72 hours of incubation
Description: as §1, §3

ZR-75-1 breast = assay: In vitro cytotoxicity (MTS, 72 h), ZR-75-1; type: cell-based; settings: Homo sapiens; ZR-75-1, 72 hours of incubation
Description: as §1, §3

LOX melanoma [3] = assay: In vitro cytotoxicity (MTS, 72 h), LOX; type: cell-based; settings: Homo sapiens, 72 hours of incubation
Description: as §1, §3

PC-3 prostate = assay: In vitro cytotoxicity (MTS, 72 h), PC-3; type: cell-based; settings: Homo sapiens; PC-3, 72 hours of incubation
Description: as §1, §3

CAKI-1 renal [4] = assay: In vitro cytotoxicity (MTS, 72 h), CAKI-1; type: cell-based; settings: Homo sapiens; CAKI-1, 72 hours of incubation
Description: as §1, §3

[5] = tested on: eight human tumor cell lines; assay: In vitro cytotoxicity, panel of eight human tumor cell lines; type: cell-based
Description: as §1, §3

Maximally tolerated dose = type: in vivo, mice; settings: once per day for 9 consecutive days
Description: (§4) Because of its potent in vitro activity, methyl-F-araC (13) was evaluated for in vivo activity against three solid tumor xenografts (CAKI-1 renal, NCI-H23 NSCL, and LOX melanoma). Prior to these studies the maximally tolerated dose of methyl-F-araC was determined to be 3 mg/kg given once per day for 9 consecutive days. […] Female NCr-nu athymic mice were implanted subcutaneously with CAKI-1 tumor fragments. When tumors were approximately 100-250 mg, mice were treated ip with methyl-F-araC at 1, 2, or 3 mg/kg/dose (1 treatment each day for 9 consecutive days starting on day 14). Each treatment group contained 6 mice. The tumors were measured with calipers twice each week, and the weight (mg) was calculated. In this experiment there were 3 of 6 tumor-free survivors at the end of the experiment (62 days post implant) in each treatment group. Good results were also seen against NCI-H23 and LOX human tumor xenografts (Table 2).

CAKI-1 renal [6] = assay: CAKI-1 renal tumor xenograft, sc, in nude mice; type: in vivo, female NCr-nu athymic mice
Description: as §4
(§5) Xenografts were implanted sc on the flanks of female nude mice. When tumors were approximately 100-250 mg, they were treated ip with 3 or 4 mg/kg/dose of methyl-F-araC (q1d×9) and tumor size was measured twice weekly thereafter. Tumor-free survivors are the number of mice that were tumor-free at the end of the experiment/total number of mice in the treatment group. ^aThe difference in the median of times poststaging for tumors of the treated (T) and control (C) groups to double in mass three times. ^bThe difference in the median of times poststaging for tumors of the treated (T) and control (C) groups to double in mass two times. ^cThe difference in the median of times poststaging for tumors of the treated (T) and control (C) groups to double in mass four times.
Mice, obtained from various commercial suppliers, were housed in microisolator cages and were allowed commercial mouse food and water ad libitum. The three human tumors were obtained from the Developmental Therapeutics Program Tumor Repository (Frederick, Md.) and were maintained in in vivo passage. Only tumor lines that tested negative for selected viruses were used. For the in vivo evaluation of the sensitivity of human tumors to the compounds, female NCr-nu athymic mice were implanted subcutaneously (sc) with 30-40 mg tumor fragments. In each experiment, methyl-F-araC (13) was tested at three dosage levels. […]
(§6) Antitumor activity was assessed on the basis of delay in tumor growth (T-C). […] Tumors were measured in two dimensions (length and width) twice weekly, and the tumor weight was calculated using the formula (length×width^2)/2 and assuming unit density. […]

NCI-H23 NSCL [7] = assay: NCI-H23 NSCL tumor xenograft, sc, in nude mice; type: in vivo, female NCr-nu athymic mice
Description: as §4, §5
(§7) Mice, obtained from various commercial suppliers, were housed in microisolator cages and were allowed commercial mouse food and water ad libitum. […]
as §6

LOX melanoma [8] = assay: LOX melanoma tumor xenograft, sc, in nude mice; type: in vivo, female NCr-nu athymic mice
Description: as §4, §5, §7, §6

[9] = 3 mg/kg/dose ip q1d×9, tumor-free/total at end of experiment

C[C@]1(CO)O[C@@H](n2cnc3c(=O)[nH]c(N)nc32)[C@@H](F)[C@@H]1O [Compound 22, 9-(2-Deoxy-2-fluoro-4-C-methyl-β-D-arabinofuranosyl)guanine]
IC50 (CCRF-CEM leukemia): ~500 nM

Nc1ccn([C@@H]2O[C@H](CO)[C@@H](O)[C@@H]2O)c(=O)n1 [araC]
intracellular concentration of triphosphate (CCRF-CEM cells; 100 nM of compound, two hours, mean±SD, N=3): 12±1 pmoles/10^6 cells | intracellular half-life of triphosphate (CCRF-CEM cells; CCRF-CEM cells, N=2): 5.6 h

C[C@]1(CO)O[C@@H](n2cnc3c(N)nc(N)nc32)[C@@H](F)[C@@H]1O [Compound 21, 2,6-Diamino-9-(2-deoxy-2-fluoro-4-C-methyl-β-D-arabinofuranosyl)purine]
IC50 (CCRF-CEM leukemia): ~500 nM | cytotoxicity with addition of deoxycoformycin (CCRF-CEM leukemia; deoxycoformycin (adenosine deaminase inhibitor) added): prevented | melting point: 270 °C (dec.)

C[C@]1(CO)O[C@@H](n2cnc3c(N)nc(Cl)nc32)[C@@H](F)[C@@H]1O [Compound 24, 2-Chloro-9-(2-deoxy-2-fluoro-4-C-methyl-β-D-arabinofuranosyl)adenine]
IC50 (CCRF-CEM leukemia): ~500 nM | inhibition of CCRF-CEM cell growth with dCyd added to the culture medium (CCRF-CEM leukemia): prevented | activity in cells that lacked dCyd kinase [1]: neither compound was active

C[C@]1(CO)O[C@@H](n2ccc(N)nc2=O)[C@@H](F)[C@@H]1O [methyl-F-araC, 1-(2-Deoxy-2-fluoro-4-C-methyl-β-D-arabinofuranosyl)cytosine]
IC50 (SNB-7 CNS): > 200 µM | IC50 (DLD-1 colon): > 200 µM | IC50 (CCRF-CEM leukemia): 12 ± 3 nM | inhibition of CCRF-CEM cell growth with dCyd added to the culture medium (CCRF-CEM leukemia): prevented | IC50 (NCI-H23 NSCL [2]): 190 ± 10 nM | IC50 (ZR-75-1 breast): > 200 µM | IC50 (LOX melanoma [3]): 240 ± 150 nM | IC50 (PC-3 prostate): > 200 µM | IC50 (CAKI-1 renal [4]): 540 ± 580 nM | cytotoxicity (in words) [5]: significant cytotoxicity against four of the cell lines | activity in cells that lacked dCyd kinase [1]: neither compound was active | intracellular concentration of triphosphate (CCRF-CEM cells; human, 2 h, 100 nM): 16±2 pmoles/10^6 cells | maximally tolerated dose (Maximally tolerated dose): 3 mg/kg | T-C (days) (CAKI-1 renal [6]; 3 mg/kg/dose ip q1d×9, time to double in mass three times): >34.6^a days | Tumor-free survivors (CAKI-1 renal [6]; [9]): 3/6 | tumor-free survivors in each treatment group (CAKI-1 renal [6]; 1, 2, or 3 mg/kg/dose ip, 9 days from day 14, 62 days post implant): 3 of 6 | in vivo activity (in words) (CAKI-1 renal [6]; CAKI-1 tumors, FIG. 1): excellent activity | T-C (days) (NCI-H23 NSCL [7]; 4 mg/kg/dose ip q1d×9, time to double in mass two times): 18.4^b days | Tumor-free survivors (NCI-H23 NSCL [7]; 4 mg/kg/dose ip q1d×9, tumor-free/total at end of experiment): 0/5 | in vivo activity (in words) (NCI-H23 NSCL [7]; NCI-H23 xenograft): Good results | T-C (days) (LOX melanoma [8]; 3 mg/kg/dose ip q1d×9, time to double in mass four times): 15.0^c days | Tumor-free survivors (LOX melanoma [8]; [9]): 0/6 | in vivo activity (in words) (LOX melanoma [8]; LOX xenograft): Good results

Nc1ccn([C@@H]2O[C@H](CO)[C@@H](O)C2(F)F)c(=O)n1 [gemcitabine]
intracellular concentration of triphosphate (CCRF-CEM cells; human, 2 h, 100 nM): 17±3 pmoles/10^6 cells
